Experimental data reported in patent publication US20230265151A1, “GIP/GLP1 CO-AGONIST COMPOUNDS” (priority 2020, published 2023).
Like-named read-outs stand apart in the source and are kept apart here.

Assays:
[1] = molecular target: T1, human Gcg receptor (hGcgR) (Homo sapiens, UniProt P47871); test: [125I]-Glucagon binding, SPA with membranes of HEK293 cells expressing hGcgR
T1 construct: expressed in transfected cells; crude membranes

[2] = molecular target: T2, human GLP-1 receptor (hGLP-1R) (Homo sapiens, UniProt P43220); test: [125I]-GLP-1 binding, SPA with membranes of HEK293 cells expressing hGLP-1R
T2 construct: expressed in transfected cells; crude membranes

hGIPR = molecular target: T3, hGIPR (Homo sapiens, UniProt P48546); test: Functional cAMP formation (HTRF) in HEK-293 clonal cells expressing hGIPR, 0.1% bovine casein, without or with 1.0% human serum albumin; format: cell-based; conditions: for EC50: geometric mean
T3 construct: expressed in transfected cells
T3 sequence (P48546 22-466): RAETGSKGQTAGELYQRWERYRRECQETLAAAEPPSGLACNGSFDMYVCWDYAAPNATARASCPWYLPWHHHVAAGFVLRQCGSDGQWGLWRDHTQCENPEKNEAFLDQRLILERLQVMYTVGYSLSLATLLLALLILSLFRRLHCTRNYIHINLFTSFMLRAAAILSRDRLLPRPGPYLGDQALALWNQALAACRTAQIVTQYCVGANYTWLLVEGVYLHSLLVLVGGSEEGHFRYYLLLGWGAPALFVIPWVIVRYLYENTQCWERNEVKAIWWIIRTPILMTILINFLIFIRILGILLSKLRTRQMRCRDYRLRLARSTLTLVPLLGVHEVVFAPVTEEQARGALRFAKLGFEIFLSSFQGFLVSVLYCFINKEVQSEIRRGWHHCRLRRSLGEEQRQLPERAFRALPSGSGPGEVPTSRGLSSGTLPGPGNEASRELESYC
Summary of the method: (§1)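 Cells were stimulated with peptide for 30 min at 37° C, then lysed in buffer carrying cAMP-d2 and anti-cAMP Eu3+-cryptate for a competitive HTRF read after at least 60 min at room temperature. The 665/620 nm ratio was converted to nM cAMP against a standard curve.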

hGCGR = molecular target: T4, hGCGR (Homo sapiens, UniProt P47871); test: Functional cAMP formation (HTRF) in HEK-293 clonal cells expressing hGCGR, 0.1% bovine casein, without or with 1.0% human serum albumin; format: cell-based; conditions: geometric mean
T4 construct: expressed in transfected cells
T4 sequence (P47871 26-477): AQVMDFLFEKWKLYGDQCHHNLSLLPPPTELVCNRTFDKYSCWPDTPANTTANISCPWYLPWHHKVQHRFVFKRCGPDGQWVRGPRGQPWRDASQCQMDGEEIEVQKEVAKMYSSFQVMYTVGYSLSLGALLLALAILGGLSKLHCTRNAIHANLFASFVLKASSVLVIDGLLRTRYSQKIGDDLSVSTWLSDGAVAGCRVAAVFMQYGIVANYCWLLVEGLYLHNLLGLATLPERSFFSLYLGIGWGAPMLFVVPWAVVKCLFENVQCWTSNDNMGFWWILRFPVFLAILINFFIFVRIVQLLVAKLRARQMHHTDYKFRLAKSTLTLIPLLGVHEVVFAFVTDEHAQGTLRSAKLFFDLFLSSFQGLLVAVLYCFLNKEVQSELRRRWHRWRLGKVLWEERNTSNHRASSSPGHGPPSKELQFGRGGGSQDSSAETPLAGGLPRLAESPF
Summary of the method: as §1

hGLP-1R = hGLP-1R (Homo sapiens, UniProt P43220); test: Functional cAMP formation (HTRF) in HEK-293 clonal cells expressing hGLP-1R, 0.1% bovine casein, without or with 1.0% human serum albumin; format: cell-based; design: expressed in transfected cells; conditions: for EC50: geometric mean
Chain of hGLP-1R (P43220 24-463): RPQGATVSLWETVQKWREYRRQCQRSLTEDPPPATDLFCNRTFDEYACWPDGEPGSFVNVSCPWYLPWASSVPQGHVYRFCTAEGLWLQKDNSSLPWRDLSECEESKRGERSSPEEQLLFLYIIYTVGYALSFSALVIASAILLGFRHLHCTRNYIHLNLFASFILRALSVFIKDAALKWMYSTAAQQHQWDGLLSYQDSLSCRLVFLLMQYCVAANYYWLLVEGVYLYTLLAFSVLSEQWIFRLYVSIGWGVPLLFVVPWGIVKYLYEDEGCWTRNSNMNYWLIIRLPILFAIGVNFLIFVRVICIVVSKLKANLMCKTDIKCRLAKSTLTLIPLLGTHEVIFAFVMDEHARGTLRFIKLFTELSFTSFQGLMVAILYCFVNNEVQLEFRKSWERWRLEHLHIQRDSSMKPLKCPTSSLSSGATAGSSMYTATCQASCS
Summary of the method: as §1

[3] = human GcgR, geometric mean (SEM, n), read-out: Binding Affinity Ki, nM (SEM, n) hGCGR
[4] = human GLP-1R, geometric mean (SEM, n), read-out: Binding Affinity Ki, nM (SEM, n) hGLP-1R
[5] = HEK293, 0.1% bovine casein and 1.0% human serum albumin, 37° C., percent of maximal response to GIP(1-42)NH2, read-out: hGIPR Emax, % ± SEM
[6] = cAMP, incubated at 37° C., 0.1% bovine casein (no human serum albumin), read-out: hGIPR EC50, nM (SEM, n)
[7] = 0.1% bovine casein and 1.0% human serum albumin, 37° C., read-out: hGCGR EC50, nM (SEM, n)
[8] = cAMP, incubated at 37° C., 0.1% bovine casein (no human serum albumin), read-out: hGCGR EC50, nM (SEM, n)
[9] = HEK293, percent of maximal response to GLP-1(7-36)NH2, 37° C., 0.1% bovine casein, arithmetic mean, read-out: hGLP-1R Emax, % ± SEM
[10] = cAMP, incubated at 37° C., 0.1% bovine casein (no human serum albumin), read-out: hGLP-1R EC50, nM (SEM, n)

T1 sequence (P47871 26-477): as the sequence (P47871 26-477) above

Row | Compound | Ki [1, 3] | Ki [2, 4] | Emax (hGIPR; [5]) | EC50 (hGIPR; [6]) | EC50 (hGCGR; [7]) | EC50 (hGCGR; [8]) | Emax (hGLP-1R; [9]) | EC50 (hGLP-1R; [10]) | also measured
1 | CC[C@H](C)[C@H](NC(=O)[C@H](CC(C)C)NC(=O)[C@](C)(Cc1ccc(O)cc1)NC(=O)[C@@H](CCC(=O)O)NC(=O)[C@@H](NC(=O)[C@H](Cc1ccccc1)NC(=O)[C@H](CCC(=O)O)NC(=O)C(C)(C)NC(=O)[C@H](CCC(N)=O)NC(=O)[C@H](C)NC(=O)[C@H](CCCCNC(=O)COCCOCCNC(=O)COCCOCCNC(=O)CC[C@H](NC(=O)CCCCCCCCCCCCC(=O)O)C(=O)O)NC(=O)[C@H](CCCN)NC(=O)[C@H](CC(=O)O)NC(=O)[C@H](CC(C)C)NC(=O)[C@](C)(CC(C)C)NC(=O)[C@@H](NC(=O)[C@H](CO)NC(=O)[C@H](Cc1ccncc1)NC(=O)[C@H](CC(=O)O)NC(=O)[C@H](CO)NC(=O)[C@@H](NC(=O)[C@](C)(Cc1ccccc1F)NC(=O)[C@@H](NC(=O)CNC(=O)[C@H](CCC(=O)O)NC(=O)C(C)(C)NC(=O)[C@@H](N)Cc1ccc(O)cc1)[C@@H](C)O)[C@@H](C)O)[C@@H](C)CC)[C@@H](C)CC)C(=O)N[C@@H](CCC(=O)O)C(=O)NCC(=O)NCC(=O)N[C@@H](CCCCNC(=O)COCCOCCNC(=O)COCCOCCNC(=O)CC[C@H](NC(=O)CCCCCCCCCCCCC(=O)O)C(=O)O)C(=O)N[C@@H](CO)C(=O)N[C@@H](CO)C(=O)NCC(=O)N[C@@H](C)C(=O)N1CCC[C@H]1C(=O)N1CCC[C@H]1C(=O)N1CCC[C@H]1C(=O)N[C@@H](CO)C(N)=O [Example 1] | > 969 nM | 2.33 nM | 87.5 ± 3.24% | 0.0145 nM | > 9950 nM | > 9950 nM | 97 ± 4.47% | – | EC50 (hGIPR; 0.1% bovine casein and 1.0% human serum albumin, 37° C., read-out: hGIPR EC50, nM (SEM, n)): 0.696 nM; Emax (hGIPR; HEK293, percent of maximal response to GIP(1-42)NH2, 37° C., 0.1% bovine casein, arithmetic mean, read-out: hGIPR Emax, % ± SEM): 90.2 ± 2.82%; EC50 (hGLP-1R; 0.1% bovine casein and 1.0% human serum albumin, 37° C., read-out: hGLP-1R EC50, nM (SEM, n)): 30.7 nM; Emax (hGLP-1R; HEK293, 0.1% bovine casein and 1.0% human serum albumin, 37° C., percent of maximal response to GLP-1(7-36)NH2, read-out: hGLP-1R Emax, % ± SEM): 94.3 ± 4.39%
2 | CC[C@H](C)[C@H](NC(=O)[C@H](CC(C)C)NC(=O)[C@](C)(Cc1ccc(O)cc1)NC(=O)[C@@H](CCC(=O)O)NC(=O)[C@@H](NC(=O)[C@H](Cc1ccccc1)NC(=O)[C@H](CCC(=O)O)NC(=O)C(C)(C)NC(=O)[C@H](CCC(N)=O)NC(=O)[C@H](C)NC(=O)[C@H](CCCCNC(=O)COCCOCCNC(=O)COCCOCCNC(=O)CC[C@H](NC(=O)CCCCCCCCCCCCC(=O)O)C(=O)O)NC(=O)[C@H](CCCN)NC(=O)[C@H](CC(=O)O)NC(=O)[C@H](CC(C)C)NC(=O)[C@](C)(CC(C)C)NC(=O)[C@@H](NC(=O)[C@H](CO)NC(=O)[C@@](C)(NC(=O)[C@H](CC(=O)O)NC(=O)[C@H](CO)NC(=O)[C@@H](NC(=O)[C@](C)(Cc1ccccc1F)NC(=O)[C@@H](NC(=O)CNC(=O)[C@H](CCC(=O)O)NC(=O)C(C)(C)NC(=O)[C@@H](N)Cc1ccc(O)cc1)[C@@H](C)O)[C@@H](C)O)C(C)C)[C@@H](C)CC)[C@@H](C)CC)C(=O)N[C@@H](CCC(=O)O)C(=O)NCC(=O)NCC(=O)N[C@@H](CCCCNC(=O)COCCOCCNC(=O)COCCOCCNC(=O)CC[C@H](NC(=O)CCCCCCCCCCCCC(=O)O)C(=O)O)C(=O)N[C@@H](CO)C(=O)N[C@@H](CO)C(=O)NCC(=O)N[C@@H](C)C(=O)N1CCC[C@H]1C(=O)N1CCC[C@H]1C(=O)N1CCC[C@H]1C(=O)N[C@@H](CO)C(N)=O [Example 52] | > 966 nM | 1.16 nM | 87.6% | – | > 9950 nM | > 9950 nM | – | 0.384 nM | –
3 | CCCCCCCCCCCC(=O)N[C@@H](CCC(=O)NCCOCCOCC(=O)NCCOCCOCC(=O)NCCCC[C@H](NC(=O)[C@H](CCCN)NC(=O)[C@H](CC(=O)O)NC(=O)[C@H](CC(C)C)NC(=O)[C@](C)(CC(C)C)NC(=O)[C@@H](NC(=O)[C@H](CO)NC(=O)[C@H](Cc1ccncc1)NC(=O)[C@H](CC(=O)O)NC(=O)[C@H](CO)NC(=O)[C@@H](NC(=O)[C@](C)(Cc1ccccc1F)NC(=O)[C@@H](NC(=O)CNC(=O)[C@H](CCC(=O)O)NC(=O)C(C)(C)NC(=O)[C@@H](N)Cc1ccc(O)cc1)[C@@H](C)O)[C@@H](C)O)[C@@H](C)CC)C(=O)N[C@@H](C)C(=O)N[C@@H](CCC(N)=O)C(=O)NC(C)(C)C(=O)N[C@@H](CCC(=O)O)C(=O)N[C@@H](Cc1ccccc1)C(=O)N[C@H](C(=O)N[C@H](CCC(=O)O)C(=O)N[C@@](C)(Cc1ccc(O)cc1)C(=O)N[C@@H](CC(C)C)C(=O)N[C@H](C(=O)N[C@@H](CCCCNC(=O)COCCOCCNC(=O)COCCOCCNC(=O)CC[C@H](NC(=O)CCCCCCCCCCC)C(=O)O)C(=O)NCC(=O)NCC(=O)N1CCC[C@H]1C(=O)N[C@@H](CO)C(=O)N[C@@H](CO)C(=O)NCC(=O)N[C@@H](C)C(=O)N1CCC[C@H]1C(=O)N1CCC[C@H]1C(=O)N1CCC[C@H]1C(=O)N[C@@H](CO)C(N)=O)[C@@H](C)CC)[C@@H](C)CC)C(=O)O [Example 139] | 109 nM | 0.268 nM | – | 0.0108 nM | – | > 9950 nM | 111% | 0.141 nM | –
4 | CC[C@H](C)[C@H](NC(=O)[C@H](CC(C)C)NC(=O)[C@](C)(Cc1ccc(O)cc1)NC(=O)[C@@H](CCC(=O)O)NC(=O)[C@@H](NC(=O)[C@H](Cc1ccccc1)NC(=O)[C@H](CCC(=O)O)NC(=O)C(C)(C)NC(=O)[C@H](CCC(N)=O)NC(=O)[C@H](C)NC(=O)[C@H](CCCCNC(=O)COCCOCCNC(=O)COCCOCCNC(=O)CC[C@H](NC(=O)CCCCCCCCCOc1ccc(C(=O)O)cc1)C(=O)O)NC(=O)[C@H](CCCN)NC(=O)[C@H](CC(=O)O)NC(=O)[C@H](CC(C)C)NC(=O)[C@](C)(CC(C)C)NC(=O)[C@@H](NC(=O)[C@H](CO)NC(=O)[C@H](Cc1ccncc1)NC(=O)[C@H](CC(=O)O)NC(=O)[C@H](CO)NC(=O)[C@@H](NC(=O)[C@](C)(Cc1ccccc1F)NC(=O)[C@@H](NC(=O)CNC(=O)[C@H](CCC(=O)O)NC(=O)C(C)(C)NC(=O)[C@@H](N)Cc1ccc(O)cc1)[C@@H](C)O)[C@@H](C)O)[C@@H](C)CC)[C@@H](C)CC)C(=O)N[C@@H](CCC(=O)O)C(=O)NCC(=O)NCC(=O)N[C@@H](CCCCNC(=O)COCCOCCNC(=O)COCCOCCNC(=O)CC[C@H](NC(=O)CCCCCCCCCOc1ccc(C(=O)O)cc1)C(=O)O)C(=O)N[C@@H](CO)C(=O)N[C@@H](CO)C(=O)NCC(=O)N[C@@H](C)C(=O)N1CCC[C@H]1C(=O)N1CCC[C@H]1C(=O)N1CCC[C@H]1C(=O)N[C@@H](CO)C(N)=O [Example 2] | – | – | – | – | – | – | – | – | Ki [1]: > 958 nM; Ki [2]: 1.04 nM; Emax (hGIPR; HEK293, read-out: hGIPR Emax, % ± SEM, 0.1% bovine casein and 1.0% human serum albumin, 37° C., percent of maximal response to GIP(1-42)NH2): 87.8 ± 5.11%; Emax (hGIPR; HEK293, read-out: hGIPR Emax, % ± SEM, percent of maximal response to GIP(1-42)NH2, 37° C., 0.1% bovine casein, arithmetic mean): 93 ± 0.813%; EC50 (hGIPR; hGIPR EC50, nM (SEM, n), 0.1% bovine casein and 1.0% human serum albumin, 37° C.): 0.659 nM; EC50 (hGIPR; hGIPR EC50, nM (SEM, n), cAMP, incubated at 37° C., 0.1% bovine casein (no human serum albumin)): 0.0154 nM; EC50 (hGCGR; hGCGR EC50, nM (SEM, n), 0.1% bovine casein and 1.0% human serum albumin, 37° C.): > 9950 nM; EC50 (hGCGR; hGCGR EC50, nM (SEM, n), cAMP, incubated at 37° C., 0.1% bovine casein (no human serum albumin)): > 9950 nM; Emax (hGLP-1R; HEK293, read-out: hGLP-1R Emax, % ± SEM, percent of maximal response to GLP-1(7-36)NH2, 37° C., 0.1% bovine casein, arithmetic mean): 93.1 ± 5.83%; EC50 (hGLP-1R; hGLP-1R EC50, nM (SEM, n), 0.1% bovine casein and 1.0% human serum albumin, 37° C.): 32.1 nM; EC50 (hGLP-1R; hGLP-1R EC50, nM (SEM, n), cAMP, incubated at 37° C., 0.1% bovine casein (no human serum albumin)): 1.14 nM
